Assay results: the NIST ThermoML archive (doi:10.1016/j.jct.2014.02.018)
Where “and” joins values, the source holds several entries; their conditions need not be identical. Equal values may be shown once.

Conditions: Crystal, Calculated from knudsen effusion weight loss

O=c1[nH]cc(F)c(=O)[nH]1 [5-fluoro-2,4(1H,3H)-pyrimidinedione]
Conditions	vapor or sublimation pressure
411.14 K	0.000178 kPa and 0.000166 kPa and 0.000165 kPa
413.1 K	0.000207 kPa and 0.000197 kPa and 0.000198 kPa
415.14 K	0.000239 kPa and 0.000235 kPa and 0.000246 kPa
417.14 K	0.000261 kPa and 0.000283 kPa and 0.000278 kPa
419.14 K	0.000347 kPa and 0.000332 kPa and 0.000351 kPa
421.18 K	0.000418 kPa and 0.000401 kPa and 0.000406 kPa
423.16 K	0.000477 kPa and 0.000472 kPa and 0.000474 kPa
425.11 K	0.000588 kPa and 0.000561 kPa and 0.00058 kPa
427.16 K	0.000669 kPa and 0.000668 kPa
429.15 K	0.000836 kPa and 0.000794 kPa and 0.000829 kPa
431.11 K	0.001027 kPa and 0.001013 kPa and 0.000961 kPa
433.17 K	0.001185 kPa and 0.001148 kPa and 0.001135 kPa

Cn1cc(F)c(=O)n(C)c1=O [2,4(1H,3H)-pyrimidinedione, 5-fluoro-1,3-dimethyl-]
Conditions	vapor or sublimation pressure
317.18 K	8.39e-05 kPa and 8.8e-05 kPa and 8.46e-05 kPa
319.21 K	0.0001113 kPa and 0.0001195 kPa and 0.0001105 kPa
321.12 K	0.0001414 kPa and 0.0001372 kPa and 0.000135 kPa
323.18 K	0.0001684 kPa and 0.0001645 kPa and 0.0001712 kPa
325.22 K	0.00021 kPa and 0.0002051 kPa and 0.0002013 kPa
327.13 K	0.0002547 kPa and 0.0002583 kPa and 0.0002608 kPa
329.18 K	0.0003128 kPa and 0.0003165 kPa and 0.000333 kPa
331.22 K	0.0004074 kPa and 0.0004027 kPa and 0.0004159 kPa
333.12 K	0.0005058 kPa and 0.0004953 kPa and 0.0005012 kPa
335.17 K	0.0006116 kPa and 0.0006003 kPa and 0.0006128 kPa
337.24 K	0.0007507 kPa and 0.0007652 kPa and 0.0007436 kPa
339.14 K	0.0009104 kPa and 0.0009266 kPa and 0.0009283 kPa
